According to patent US9670147B2, “Antioxidant inflammation modulators: oleanolic acid derivatives with amino and other modifications at C-17” (REATA PHARMACEUTICALS, INC., priority 2008, dated 2017):

Experiments:
[1] = test system: γ-GCS; assay: Nrf2 target gene induction in MDA-MB-435 cells, qPCR: γ-GCS; format: cell-based, human
Method: (§1) FIGS. 44, 46 and 47—Induction of HO-1, TrxR1 and γ-GCS. FIGS. 44A-C, 46A-C, 47A-C: MDA-MB-435 human melanoma cells were treated with vehicle (DMSO) or the indicated compounds (400 nM) for 16 hours. HO-1, thioredoxin reductase-1 (TrxR1), and γ-glutamylcysteine synthetase (γ-GCS) mRNA levels were quantified using qPCR and were normalized relative to a DMSO-treated sample run in parallel. Values are averages of duplicate wells. FIGS. 44D, 46D, 47D: MDA-MB-435 cells were treated with vehicle (DMSO) or the indicated compounds at 400 nM for 16 hours. HO-1, TrxR1 and actin protein levels were assayed by immunoblotting.
(§2) FIG. 45. Induction of HO-1, TrxR1 and γ-GCS. FIGS. 45 A-C: MDA-MB-435 cells were treated with vehicle (DMSO) or the indicated compounds at 160 nM for 16 hours. HO-1, TrxR1, and γ-GCS mRNA levels were quantified by qPCR and were normalized relative to a DMSO-treated sample run in parallel. Values are averages of duplicate wells. FIGS. 44D, 46D, 47D: MDA-MB-435 cells were treated with vehicle (DMSO) or the indicated compounds at 160 nM for 16 hours. HO-1, TrxR1 and actin protein levels were assayed by immunoblotting.
(§3) MDA-MB-435 human melanoma cells were treated with vehicle (DMSO) or the indicated compounds and concentrations for 16 hours. HO-1, thioredoxin reductase-1 (TrxR1), γ-glutamylcysteine synthetase (γ-GCS), and ferritin heavy chain mRNA levels were quantified using qPCR and were normalized relative to a DMSO-treated sample run in parallel. Values are averages of duplicate wells. Primer sequences are as follows.

[2] = test system: HO-1; assay: Nrf2 target gene induction in MDA-MB-435 cells, qPCR: HO-1; format: cell-based, human
Method: FIG. 43. Induction of HO-1. FIGS. 43A and 43B: MDA-MB-435 human melanoma cells were treated with vehicle (DMSO) or the indicated compounds and concentrations for 16 hours. HO-1 mRNA levels were quantified using qPCR and were normalized relative to a DMSO-treated sample run in parallel. Values are averages of duplicate wells. FIG. 43C: MDA-MB-435 cells were treated with vehicle (DMSO) or the indicated compounds at 400 nM for 16 hours. HO-1, TrxR1 and actin protein levels were assayed by immunoblotting. Actin served as a loading control.
as §1, §2, §3

[3] = test system: NQO1; assay: Nrf2 target gene induction in MDA-MB-435 cells: NQO1; format: cell-based, human; conditions: 250 nM
[4] = test system: TrxR1; assay: Nrf2 target gene induction in MDA-MB-435 cells, qPCR: TrxR1; format: cell-based, human; conditions: 400 nM, 16 hours
Method: as §1, §2, §3

[5] = test system: RAW264.7 macrophages; assay: Cell viability, WST-1 reagent; format: cell-based, mouse; conditions: 2 h pre-treatment, then 20 ng/ml IFNγ for 24 hours
Procedure, shortened: (§4)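 Mouse RAW264.7 macrophages pre-treated 2 h with compound (nM concentrations) or DMSO, then stimulated with 20 ng/ml recombinant mouse IFNγ for 24 h. Nitrite in medium measured by Griess reagent; viability by WST-1.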

[6] = test system: IFNγ-induced NO production in RAW264.7 macrophages; assay: Suppression of IFNγ-induced NO production (Griess reagent); format: cell-based, mouse; conditions: 2 h pre-treatment, then 20 ng/ml IFNγ for 24 hours
Procedure, shortened: as §4

[7] = TP levels in mouse brain after feeding in diet, LC/MS; format: in vivo; conditions: CD-1 mice, 200 or 400 mg/kg diet for 3.5 days
Method: FIG. 48. […] CD-1 mice were fed either 200 or 400 mg/kg diet of either TP-319 or TP-500 for 3.5 days, and TP levels in the brains of the mice were analyzed by LC/MS. The structures of TP-319 and TP-500 are shown herein.

IC50 ([6]; Mus musculus) | IC50 [6] | Compound | γ-GCS induction ([1]; 250 nM) | HO-1 induction ([2]; 250 nM) | NQO1 induction [3] | γ-GCS induction ([1]; 400 nM, 16 hours) | HO-1 induction ([2]; 400 nM, 16 hours) | TrxR1 induction [4] | IC50 ([5]; Mus musculus) | IC50 [5] | TP levels in the brains of the mice [7]
~15 nM | – | CC1(C)CC[C@]2(NS(C)(=O)=O)CC[C@]3(C)[C@H](C(=O)C[C@@H]4[C@@]5(C)C=C(C#N)C(=O)C(C)(C)[C@@H]5CC[C@]43C)[C@@H]2C1 [Compound 63215, N-((4aS,6aR,6bR,8aR,12aR,12bR,14aR,14bS)-11-cyano-2,2,6a,6b,9,9,12a-heptamethyl-10,14-dioxo-1,2,3,4,4a,5,6,6a,6b,7,8,8a,9,10,12a,12b,13,14,14a,14b-icosahydropicen-4a-yl)methanesulfonamide] | 3.8 fold induction above DMSO control | 1.7 fold induction above DMSO control | 1.7 fold induction above DMSO control | 21% of induction observed for RTA 402 | 1% of induction observed for RTA 402 | 36% of induction observed for RTA 402 | > 200 nM | – | –
– | ~25 nM | N-((4aS,6aR,6bR,8aR,12aR,12bR,14aR,14bS)-11-cyano-2,2,6a,6b,9,9,12a-heptamethyl-10,14-dioxo-1,2,3,4,4a,5,6,6a,6b,7,8,8a,9,10,12a,12b,13,14,14a,14b-icosahydropicen-4a-yl)-2,2,2-trifluoroethanesulfonamide [Compound 63254] | 3 fold induction above DMSO control | 2 fold induction above DMSO control | 1.7 fold induction above DMSO control | – | – | – | – | > 200 nM | –

The next lines start with the compound.

Compound | IC50 ([6]; Mus musculus) | IC50 [6] | γ-GCS induction ([1]; 250 nM) | HO-1 induction ([2]; 250 nM) | NQO1 induction [3] | γ-GCS induction ([1]; 400 nM, 16 hours) | HO-1 induction ([2]; 400 nM, 16 hours) | TrxR1 induction [4] | IC50 ([5]; Mus musculus) | IC50 [5] | TP levels in the brains of the mice [7]
CC1(C)CC[C@]2(O)CC[C@]3(C)[C@H](C(=O)CC4[C@@]5(C)C=C(C#N)C(=O)C(C)(C)[C@@H]5CC[C@]43C)[C@@H]2C1 (stereo partly drawn) [Compound 63208, (4aR,6aR,6bR,8aS,12aS,12bR,14bR)-8a-hydroxy-4,4,6a,6b,11,11,14b-heptamethyl-3,13-dioxo-3,4,4a,5,6,6a,6b,7,8,8a,9,10,11,12,12a,12b,13,14,14a,14b-icosahydropicene-2-carbonitrile] | – | – | 3.2 fold induction above DMSO control | 1.1 fold induction above DMSO control | 1.7 fold induction above DMSO control | – | – | – | – | – | –
CC1(C)CC[C@]2(C(=O)NCC(F)(F)F)CC[C@]3(C)[C@H](C(=O)C=C4[C@@]5(C)C=C(C#N)C(=O)C(C)(C)[C@@H]5CC[C@]43C)[C@@H]2C1 [CDDO-TFEA] | – | – | – | – | – | – | – | – | – | – | Higher Levels in Mouse Brain than CDDO-EA
CC1(C)CC[C@]2(N)CC[C@]3(C)[C@H](C(=O)C[C@@H]4[C@@]5(C)C=C(C#N)C(=O)C(C)(C)[C@@H]5CC[C@]43C)[C@@H]2C1 [Compound 63198, (4aR,6aR,6bR,8aS,12aS,12bR,14aR,14bR)-8a-amino-4,4,6a,6b,11,11,14b-heptamethyl-3,13-dioxo-3,4,4a,5,6,6a,6b,7,8,8a,9,10,11,12,12a,12b,13,14,14a,14b-icosahydropicene-2-carbonitrile] | ~30 nM | – | 2.8 fold induction above DMSO control | 1.4 fold induction above DMSO control | 1.8 fold induction above DMSO control | – | 2% of induction observed for RTA 402 | 71% of induction observed for RTA 402 | > 200 nM | – | –
